The record followed here is patent US10239957B2, “Peptide containing conjugates for dual molecular delivery of oligonucleotides” (Merck Sharp & Dohme Corp., priority 2013, dated 2019).

Where no end group is shown, it is not given here. [ ]: non-standard residue; d: D form. TGN = not defined here

In this test the test system is CTNNB1. Kind of test: In vitro DMD assay: mRNA silencing enhancement by peptide conjugates after siRNA-IV treatment. The class given is cell-based. Conditions: primary mouse hepatocytes, siRNA-IV 125 nM baseline. The procedure: Cryopreserved primary Mouse hepatocytes (Bioreclamation, LLC) were placed into Collagen Type I coated 96-well plates at 25,000 cells per well in serum-containing InVitroGRO CP media (Bioreclamation, LLC) and allowed 5 hours to attach. Media was replaced with InVitroGRO HI media and cells were treated with siRNA-IV at 125 nM [siRNA] for 1 hour. Media was replaced with InVitroGRO HI media and cells were treated for approximately 16 hours with experimental Peptide conjugates at various concentrations to establish a dose-response curve. Peptide conjugates were washed out after 16 hours with InVitroGRO HI media and cells allowed to incubate for an additional 24 hours. Cells were then lysed and mRNA expression of the siRNA target was measured by RT-qPCR (Applied Biosystems Taqman reagents). mRNA silencing activity of each Peptide conjugate was expressed as an enhancement above the baseline activity of 125 nM siRNA-IV alone with respect to the untreated cells and all siRNA target Ct values were normalized to PPIB mRNA for each well (dddCt) and summarized.
The structure of TGN-S-S-peptide is shown below and the activity data is listed in Table 5 (siRNA-IV concentration was kept at […]).

As for “TGN-S-S-SEQ ID NO: 1633(D) ([dC]G[dL][dF]G[dE][dI][dH][dH][dL][dI][dH][dH]G[dL][dE][dN][dL][dI][dD][dW][dW][dN]G; not fully specified (residue 1); also: TGN attached via disulfide; listed as Homo sapiens)”, the “In vitro dddCt (vs. baseline SCE dose)” value runs as follows: (Targeted peptide dose 125 nM) −0.39; (Targeted peptide dose 625 nM) −0.57; (Targeted peptide dose 3125 nM) −0.37; (Targeted peptide dose 15625 nM) −0.69.

With “TGN-S-S-SEQ ID NO: 1654 (D)) ([dC]G[dL][dL][dE][dE][dI][dE][dE][dL][dL][dE][dE]G[dL][dE][dN][dL][dI][dD][dW]G[dN][dS]; not fully specified (residue 1); also: TGN attached via disulfide; listed as Homo sapiens)”, under “Targeted peptide dose 125 nM”, the “In vitro dddCt (vs. baseline SCE dose)” value is given as −1.05.

On to “TGN-S-S-SEQ ID NO: 1717 (L) (C(TGN)FLGALFHALSHLLENLIDWWNG; reading uncertain; also: TGN disulfide conjugate at Cys1; listed as Homo sapiens)”, for which the “In vitro dddCt (vs. baseline SCE dose)” value worked out at 0.61 (Targeted peptide dose 25 nM), 0.37 (Targeted peptide dose 625 nM) and 0.15 (Targeted peptide dose 3125 nM).

“TGN-S-S-SEQ ID NO: 1738 (D) (G[dL][dF]G[dE][dI][dE][dE][dL][dI][dE][dE]G[dL][dE][dN][dL][dI][dD][dW]G[dN]G[dL][dA][dE][dL][dA][dE][dA][dL][dE][dA][dL][dA][dA]GG[dS][dC]; not fully specified (residue 40); also: disulfide to TGN peptide via Cys40; listed as Homo sapiens)”: the “In vitro dddCt (vs. baseline SCE dose)” value is −0.24 (Targeted peptide dose 8 nM); −0.67 (Targeted peptide dose 40 nM); −1.57 (Targeted peptide dose 200 nM); −1.69 (Targeted peptide dose 1000 nM); −2.19 (Targeted peptide dose 5000 nM).

For “TGN-S-S-SEQ ID NO: 1740(D) (G[dL][dF][dE][dA][dI][dE]G[dF][dI][dE][dN]G[dW][dE]G[dL][dA][dE][dL][dA][dE][dA][dL][dE][dA][dL][dA][dA]GG[dS][dC]; not fully specified (residue 33); also: disulfide to TGN peptide via Cys33; listed as Homo sapiens)”, the “In vitro dddCt (vs. baseline SCE dose)” value by setting is: (Targeted peptide dose 8 nM) −0.19; (Targeted peptide dose 40 nM) −0.46; (Targeted peptide dose 200 nM) −1.29; (Targeted peptide dose 1000 nM) −2.3; (Targeted peptide dose 5000 nM) −2.98.

“TGN-S-S-SEQ ID NO: 1741 (L) (GLFGALAEALAEALAEHLAEALAEALEALAAGGSC(TGN); reading uncertain; also: TGN linked to Cys via disulfide, TGN not defined; listed as Homo sapiens)”: the “In vitro dddCt (vs. baseline SCE dose)” value is, setting by setting: (Targeted peptide dose 8 nM) 0.03; (Targeted peptide dose 24 nM) 0; (Targeted peptide dose 40 nM) −0.11; (Targeted peptide dose 120 nM) 0.02; (Targeted peptide dose 200 nM) −0.25; (Targeted peptide dose 600 nM) −0.08. Also, the “In vitro dddCt (vs. baseline SCE dose)” value is 0.98 (Targeted peptide dose 1000 nM), −0.4 (Targeted peptide dose 3000 nM), −0.58 (Targeted peptide dose 5000 nM) and −0.25 (Targeted peptide dose 15000 nM).

As for “TGN-S-S-SEQ ID NO: 1747 (D) ([dC]G[dL][dF]G[dE][dI][dE][dE][dL][dL][dE][dE]G[dL][dE][dN][dL][dI][dD][dW]G[dN]G; not fully specified (residue 1); also: disulfide to TGN peptide via Cys1; listed as Homo sapiens)”, the “In vitro dddCt (vs. baseline SCE dose)” value was −0.23 (Targeted peptide dose 8 nM); −0.7 (Targeted peptide dose 40 nM); −1.53 (Targeted peptide dose 200 nM); −2.08 (Targeted peptide dose 1000 nM); −1.98 (Targeted peptide dose 5000 nM).

On to “TGN-S-S-SEQ ID NO: 1748 (D) ([dC]G[dL][dF]G[dE][dI][dE][dE][dL][dI][dE][dE][dA][dL][dE][dN][dL][dI][dD][dW]G[dN]G; not fully specified (residue 1); also: disulfide to TGN peptide via Cys1; listed as Homo sapiens)”, for which the “In vitro dddCt (vs. baseline SCE dose)” value (Targeted peptide dose 8 nM) was −0.2; the “In vitro dddCt (vs. baseline SCE dose)” value (Targeted peptide dose 40 nM) is recorded as −0.5; the “In vitro dddCt (vs. baseline SCE dose)” value (Targeted peptide dose 200 nM) is given as −1.38; the “In vitro dddCt (vs. baseline SCE dose)” value (Targeted peptide dose 1000 nM) is given as −1.92; the “In vitro dddCt (vs. baseline SCE dose)” value (Targeted peptide dose 5000 nM) is given as −2.01.

Regarding “TGN-S-S-SEQ ID NO: 1749 (D) ([dC]G[dL][dF]G[dE][dI][dE][dE][dL][dI][dE][dE]G[dF][dE][dN][dL][dI][dD][dW]G[dN]G; not fully specified (residue 1); also: disulfide to TGN peptide via Cys1; listed as Homo sapiens)”, the “In vitro dddCt (vs. baseline SCE dose)” value (Targeted peptide dose 8 nM) turned out to be 0.02; the “In vitro dddCt (vs. baseline SCE dose)” value (Targeted peptide dose 40 nM) is −0.04; the “In vitro dddCt (vs. baseline SCE dose)” value (Targeted peptide dose 200 nM) is on record as −0.26; the “In vitro dddCt (vs. baseline SCE dose)” value (Targeted peptide dose 1000 nM) was −0.22; the “In vitro dddCt (vs. baseline SCE dose)” value (Targeted peptide dose 5000 nM) is recorded as −0.11.

Regarding “TGN-S-S-SEQ ID NO: 1751 (D) ([dC]G[dL][dF]G[dE][dI][dE][dE][dL][dI][dE][dE]G[dW][dE][dN][dL][dI][dD][dW]G[dN]G; not fully specified (residue 1); also: disulfide to TGN peptide via Cys1; listed as Homo sapiens)”, the “In vitro dddCt (vs. baseline SCE dose)” value (Targeted peptide dose 8 nM) is −0.1; the “In vitro dddCt (vs. baseline SCE dose)” value (Targeted peptide dose 40 nM) is −0.12; the “In vitro dddCt (vs. baseline SCE dose)” value (Targeted peptide dose 200 nM) stood at 0.09; the “In vitro dddCt (vs. baseline SCE dose)” value (Targeted peptide dose 1000 nM) is recorded as −0.05; the “In vitro dddCt (vs. baseline SCE dose)” value (Targeted peptide dose 5000 nM) amounted to 0.01.

Consider “TGN-S-S-SEQ ID NO: 1752 (D) ([dC]G[dL][dF]G[dE][dI][dE][dE][dW][dI][dE][dE]G[dL][dE][dN][dL][dI][dD][dW]G[dN]G; not fully specified (residue 1); also: disulfide to TGN peptide via Cys1; listed as Homo sapiens)”, for which the “In vitro dddCt (vs. baseline SCE dose)” value reads like this: (Targeted peptide dose 8 nM) −0.25; (Targeted peptide dose 40 nM) −0.48; (Targeted peptide dose 200 nM) −0.89; (Targeted peptide dose 1000 nM) −0.95; (Targeted peptide dose 5000 nM) −1.02.

In the case of “TGN-S-S-SEQ ID NO: 1753 (D) ([dC]G[dL][dF]G[dE][dI][dE][dE][dF][dI][dE][dE]G[dL][dE][dN][dL][dI][dD][dW]G[dN]G; not fully specified (residue 1); also: disulfide to TGN peptide via Cys1; listed as Homo sapiens)”, the “In vitro dddCt (vs. baseline SCE dose)” value by setting is: (Targeted peptide dose 8 nM) 0.15; (Targeted peptide dose 40 nM) 0.05; (Targeted peptide dose 200 nM) −0.2; (Targeted peptide dose 1000 nM) −0.18; (Targeted peptide dose 5000 nM) −0.16.

As to “TGN-S-S-SEQ ID NO: 1755 (D) ([dC]G[dL][dF]G[dE][dI][dE][dE][dL][dF][dE][dE]G[dL][dE][dN][dL][dI][dD][dW]G[dN]G; not fully specified (residue 1); also: disulfide to TGN peptide via Cys1; listed as Homo sapiens)”, the “In vitro dddCt (vs. baseline SCE dose)” value (Targeted peptide dose 8 nM) is −0.01; the “In vitro dddCt (vs. baseline SCE dose)” value (Targeted peptide dose 40 nM) is −0.24; the “In vitro dddCt (vs. baseline SCE dose)” value (Targeted peptide dose 200 nM) is recorded as −0.38; the “In vitro dddCt (vs. baseline SCE dose)” value (Targeted peptide dose 1000 nM) is given as −0.49; the “In vitro dddCt (vs. baseline SCE dose)” value (Targeted peptide dose 5000 nM) is −0.24.

As for “TGN-S-S-SEQ ID NO: 1758 (D) ([dC]G[dL][dF]G[dE][dI][dE][dE][dL][dI][dE][dE]G[dL][dE][dE][dL][dI][dD][dW]G[dN]G; not fully specified (residue 1); also: disulfide to TGN peptide via Cys1; listed as Homo sapiens)”, the “In vitro dddCt (vs. baseline SCE dose)” value is reported as 0.04 (Targeted peptide dose 8 nM); −0.02 (Targeted peptide dose 40 nM); −0.38 (Targeted peptide dose 200 nM); −0.77 (Targeted peptide dose 1000 nM); −0.64 (Targeted peptide dose 5000 nM).
